Data reported in paper PMC5218480 (PLoS ONE, 2017).

Test system: MV-4-11 cells
Test: Gene expression microarray analysis (Affymetrix PrimeView) and GSEA
Assay type: cell-based, human
Design: RFU PODN (11730768_x_at) / Fold change /veh PODN (11730768_x_at) / RFU LINC00158 (11744669_a_at) / Fold change /veh LINC00158 (11744669_a_at) / RFU DUSP10 (11751237_a_at) / Fold change /veh DUSP10 (11751237_a_at) / RFU ID3 (11757404_x_at) / Fold change /veh ID3 (11757404_x_at) / RFU PLEKHG5 (11737974_s_at) / Fold change /veh PLEKHG5 (11737974_s_at) / RFU LRRC4B (11730491_at) / Fold change /veh LRRC4B (11730491_at) / RFU GIMAP4 (11747438_a_at) / Fold change /veh GIMAP4 (11747438_a_at) / RFU KRT8 (11758183_x_at) / Fold change /veh KRT8 (11758183_x_at) / RFU CNN1 (11734310_a_at) / Fold change /veh CNN1 (11734310_a_at) / RFU VPS37D (11726825_at) / Fold change /veh VPS37D (11726825_at) / RFU C10orf10 (11716522_x_at) / Fold change /veh C10orf10 (11716522_x_at) / RFU KIR2DL2 /// KIR2DL4 /// KIR2DL5A /// KIR2DL5B /// KIR2DS1 /// KIR2DS2 /// KIR2DS3 /// KIR2DS4 /// KIR3DL3 /// KIR3DL3 /// KIR3DS1 (11738374_at) / Fold change /veh KIR2DL2 /// KIR2DL4 /// KIR2DL5A /// KIR2DL5B /// KIR2DS1 /// KIR2DS2 /// KIR2DS3 /// KIR2DS4 /// KIR3DL3 /// KIR3DL3 /// KIR3DS1 (11738374_at) / RFU C1QL1 (11718748_at) / Fold change /veh C1QL1 (11718748_at) / RFU TMPRSS4 (11747572_a_at) / Fold change /veh TMPRSS4 (11747572_a_at) / RFU HAMP (11756126_x_at) / Fold change /veh HAMP (11756126_x_at) / RFU RNFT2 (11725882_a_at) / Fold change /veh RNFT2 (11725882_a_at) / RFU NR4A2 (11747474_a_at) / Fold change /veh NR4A2 (11747474_a_at) / RFU ABCC12 (11746883_a_at) / Fold change /veh ABCC12 (11746883_a_at) / RFU TMEM136 (11760407_x_at) / Fold change /veh TMEM136 (11760407_x_at) / RFU CLDN22 /// WWC2 (11732394_at) / Fold change /veh CLDN22 /// WWC2 (11732394_at) / RFU HLA-DPB1 (11760878_x_at) / Fold change /veh HLA-DPB1 (11760878_x_at) / RFU SPINT1 (11716480_a_at) / Fold change /veh SPINT1 (11716480_a_at) / RFU GAP43 (11754022_s_at) / Fold change /veh GAP43 (11754022_s_at) / RFU A4GNT (11735810_at) / Fold change /veh A4GNT (11735810_at) / RFU PRB3 (11715151_x_at) / Fold change /veh PRB3 (11715151_x_at) / RFU TUBB4B (11761932_at) / Fold change /veh TUBB4B (11761932_at) / RFU CAPN14 (11732068_a_at) / Fold change /veh CAPN14 (11732068_a_at) / RFU TMCC2 (11721928_a_at) / Fold change /veh TMCC2 (11721928_a_at) / RFU IRGQ (11745062_a_at) / Fold change /veh IRGQ (11745062_a_at) / RFU FAM174B (11720279_a_at) / Fold change /veh FAM174B (11720279_a_at) / RFU TMPRSS4 (11748680_a_at) / Fold change /veh TMPRSS4 (11748680_a_at) / RFU FAM212B (11763350_a_at) / Fold change /veh FAM212B (11763350_a_at) / RFU PLEKHG5 (11743358_a_at) / Fold change /veh PLEKHG5 (11743358_a_at) / RFU ZSCAN30 (11745921_a_at) / Fold change /veh ZSCAN30 (11745921_a_at) / RFU CMKLR1 (11741424_a_at) / Fold change /veh CMKLR1 (11741424_a_at) / RFU LOC101060620 /// MAPK8IP1 (11723275_at) / Fold change /veh LOC101060620 /// MAPK8IP1 (11723275_at) / RFU SPTSSB (11747773_x_at) / Fold change /veh SPTSSB (11747773_x_at) / RFU PRSS12 (11739890_at) / Fold change /veh PRSS12 (11739890_at) / RFU BIN1 (11741810_x_at) / Fold change /veh BIN1 (11741810_x_at) / RFU WNT11 (11732464_a_at) / Fold change /veh WNT11 (11732464_a_at) / RFU C10orf10 (11716521_a_at) / Fold change /veh C10orf10 (11716521_a_at) / RFU C5orf56 (11738089_at) / Fold change /veh C5orf56 (11738089_at) / RFU CYB561 (11721691_x_at) / Fold change /veh CYB561 (11721691_x_at) / RFU ANKRD19P (11752326_a_at) / Fold change /veh ANKRD19P (11752326_a_at) / RFU OR2T12 /// OR2T33 /// OR2T8 (11738714_s_at) / Fold change /veh OR2T12 /// OR2T33 /// OR2T8 (11738714_s_at) / RFU VCAN (11748164_a_at) / Fold change /veh VCAN (11748164_a_at) / RFU JSRP1 (11732532_at) / Fold change /veh JSRP1 (11732532_at) / RFU KRTAP10-11 (11738290_x_at) / Fold change /veh KRTAP10-11 (11738290_x_at) / RFU MYO3A (11730013_a_at) / Fold change /veh MYO3A (11730013_a_at) / RFU EBF3 (11725865_a_at) / Fold change /veh EBF3 (11725865_a_at) / RFU CAMK2N1 (11719241_x_at) / Fold change /veh CAMK2N1 (11719241_x_at) / RFU C5orf56 (11738088_a_at) / Fold change /veh C5orf56 (11738088_a_at) / RFU OLFML3 (11715873_a_at) / Fold change /veh OLFML3 (11715873_a_at) / RFU LOC100653217 /// NTM (11731650_a_at) / Fold change /veh LOC100653217 /// NTM (11731650_a_at) / RFU MAPK11 (11762145_a_at) / Fold change /veh MAPK11 (11762145_a_at) / RFU FIZ1 (11724087_x_at) / Fold change /veh FIZ1 (11724087_x_at) / RFU OASL (11726364_x_at) / Fold change /veh OASL (11726364_x_at) / RFU SOX15 (11748057_x_at) / Fold change /veh SOX15 (11748057_x_at) / RFU CD79A (11719716_a_at) / Fold change /veh CD79A (11719716_a_at) / RFU HIST1H1D (11736915_at) / Fold change /veh HIST1H1D (11736915_at) / RFU CASKIN2 (11723855_a_at) / Fold change /veh CASKIN2 (11723855_a_at) / RFU LOC730098 (11760151_x_at) / Fold change /veh LOC730098 (11760151_x_at) / RFU OR4N2 (11742367_at) / Fold change /veh OR4N2 (11742367_at) / RFU PRRT2 (11749266_a_at) / Fold change /veh PRRT2 (11749266_a_at) / RFU SNX32 (11753110_a_at) / Fold change /veh SNX32 (11753110_a_at) / RFU CDHR5 (11726645_a_at) / Fold change /veh CDHR5 (11726645_a_at) / RFU RCAN1 (11760418_a_at) / Fold change /veh RCAN1 (11760418_a_at) / RFU FAM167A (11723789_a_at) / Fold change /veh FAM167A (11723789_a_at) / RFU FAM26E (11764081_at) / Fold change /veh FAM26E (11764081_at) / RFU ISYNA1 (11749810_s_at) / Fold change /veh ISYNA1 (11749810_s_at) / RFU ACY1 (11761880_at) / Fold change /veh ACY1 (11761880_at) / RFU 11764098_at / Fold change /veh 11764098_at / RFU SAMD14 (11745864_x_at) / Fold change /veh SAMD14 (11745864_x_at) / RFU NPB (11741838_a_at) / Fold change /veh NPB (11741838_a_at) / RFU TMPRSS6 (11731388_a_at) / Fold change /veh TMPRSS6 (11731388_a_at) / RFU KRTAP10-2 (11738614_at) / Fold change /veh KRTAP10-2 (11738614_at) / RFU ARHGAP8 /// PRR5-ARHGAP8 (11727945_x_at) / Fold change /veh ARHGAP8 /// PRR5-ARHGAP8 (11727945_x_at) / RFU KRTAP5-7 /// NADSYN1 (11734609_at) / Fold change /veh KRTAP5-7 /// NADSYN1 (11734609_at) / RFU RASL12 (11751679_a_at) / Fold change /veh RASL12 (11751679_a_at) / RFU CDKN2B (11736163_a_at) / Fold change /veh CDKN2B (11736163_a_at) / RFU PRF1 (11729649_at) / Fold change /veh PRF1 (11729649_at) / RFU, ZNF638 /// ZNF638-IT1 / Fold change vs veh, ZNF638 /// ZNF638-IT1 / RFU, PANK3 / Fold change vs veh, PANK3 / RFU, SH3YL1 / Fold change vs veh, SH3YL1 / RFU, ZEB2 / Fold change vs veh, ZEB2 / RFU, NRIP1 / Fold change vs veh, NRIP1 / RFU, PTTG1IP / Fold change vs veh, PTTG1IP / RFU, CAPN2 / Fold change vs veh, CAPN2 / RFU, MED14 / Fold change vs veh, MED14 / RFU, SNORA58 / Fold change vs veh, SNORA58 / RFU, C1orf63 / Fold change vs veh, C1orf63 / RFU, LRRFIP1 / Fold change vs veh, LRRFIP1 / RFU, NDUFAF7 / Fold change vs veh, NDUFAF7 / RFU, SLC12A2 / Fold change vs veh, SLC12A2 / RFU, IBTK / Fold change vs veh, IBTK / RFU, ESF1 / Fold change vs veh, ESF1 / Fold change vs veh, TMEM50B / RFU, TAOK1 / Fold change vs veh, TAOK1 / RFU, ACBD3 / Fold change vs veh, ACBD3 / RFU, TMA16 / Fold change vs veh, TMA16 / RFU, RWDD3 / Fold change vs veh, RWDD3 / RFU, BCAT1 / Fold change vs veh, BCAT1 / RFU, EDEM3 / Fold change vs veh, EDEM3 / RFU, TMEM33 / Fold change vs veh, TMEM33 / RFU, WDR75 / Fold change vs veh, WDR75 / RFU, AHCTF1 / Fold change vs veh, AHCTF1 / RFU, TFRC / Fold change vs veh, TFRC / RFU, ZDHHC17 / Fold change vs veh, ZDHHC17 / RFU, NOM1 / Fold change vs veh, NOM1 / RFU, ARL8B / Fold change vs veh, ARL8B / RFU, ZBTB11 / Fold change vs veh, ZBTB11 / RFU, TAMM41 / Fold change vs veh, TAMM41 / RFU, KIAA1704 /// LOC100996395 / Fold change vs veh, KIAA1704 /// LOC100996395 / RFU, ING1 / Fold change vs veh, ING1 / RFU, TRMT61B / Fold change vs veh, TRMT61B / RFU, FUBP3 / Fold change vs veh, FUBP3 / RFU, TP53 / Fold change vs veh, TP53 / RFU, TNKS2 / Fold change vs veh, TNKS2 / RFU, ZFP14 / Fold change vs veh, ZFP14 / RFU, ACTR2 / Fold change vs veh, ACTR2 / RFU, PPP3R1 / Fold change vs veh, PPP3R1 / RFU, PIK3R1 / Fold change vs veh, PIK3R1 / RFU, HNRNPA1 / Fold change vs veh, HNRNPA1 / RFU, RNF170 / Fold change vs veh, RNF170 / RFU, ZNF28 / Fold change vs veh, ZNF28 / RFU, RNGTT / Fold change vs veh, RNGTT / RFU, OGT / Fold change vs veh, OGT / RFU, BRD1 / Fold change vs veh, BRD1 / RFU, MARS / Fold change vs veh, MARS / RFU, ZNF655 / Fold change vs veh, ZNF655 / RFU, FAHD1 / Fold change vs veh, FAHD1 / RFU, BDP1 / Fold change vs veh, BDP1 / RFU, LRRCC1 / Fold change vs veh, LRRCC1 / RFU, ARID1A / Fold change vs veh, ARID1A / RFU, ZNF146 / Fold change vs veh, ZNF146 / RFU, ZNF330 / Fold change vs veh, ZNF330 / RFU, GPN3 / Fold change vs veh, GPN3 / RFU, C9orf123 / Fold change vs veh, C9orf123 / RFU, N4BP2L2 / Fold change vs veh, N4BP2L2 / RFU, ARFIP1 / Fold change vs veh, ARFIP1 / RFU, FAM179B / Fold change vs veh, FAM179B / RFU, BCL10 / Fold change vs veh, BCL10 / RFU, UHRF1BP1L / Fold change vs veh, UHRF1BP1L / RFU, BET1 / Fold change vs veh, BET1 / RFU, CNOT2 / Fold change vs veh, CNOT2 / RFU, ZNF268 / Fold change vs veh, ZNF268 / Fold change vs veh, ZNF507 / RFU, DGCR2 / Fold change vs veh, DGCR2 / RFU, WDSUB1 / Fold change vs veh, WDSUB1 / Fold change vs veh, HSP90B1 /// MIR3652 / RFU, ADSS / Fold change vs veh, ADSS / RFU, GK / Fold change vs veh, GK / RFU, ZNF148 / Fold change vs veh, ZNF148 / RFU, TAF9 / Fold change vs veh, TAF9 / RFU, SLC1A5 / Fold change vs veh, SLC1A5 / RFU, SLMO2 / Fold change vs veh, SLMO2 / RFU, ABCC4 / Fold change vs veh, ABCC4 / RFU, LOC101060439 /// RAP1B / Fold change vs veh, LOC101060439 /// RAP1B / RFU, RFX7 / Fold change vs veh, RFX7 / RFU, GTPBP10 / Fold change vs veh, GTPBP10 / RFU, CNEP1R1 / Fold change vs veh, CNEP1R1 / RFU, BIVM-ERCC5 /// ERCC5 / Fold change vs veh, BIVM-ERCC5 /// ERCC5 / RFU, ILF3 / Fold change vs veh, ILF3 / RFU 11762660_at / Fold change /veh 11762660_at / RFU VCAN (11757783_s_at) / Fold change /veh VCAN (11757783_s_at) / RFU DDX43 (11728927_at) / Fold change /veh DDX43 (11728927_at) / RFU KRT8 (11758188_x_at) / Fold change /veh KRT8 (11758188_x_at) / RFU NKD1 (11759106_at) / Fold change /veh NKD1 (11759106_at) / RFU SRD5A1 (11742802_a_at) / Fold change /veh SRD5A1 (11742802_a_at) / RFU TPSAB1 /// TPSB2 (11721975_s_at) / Fold change /veh TPSAB1 /// TPSB2 (11721975_s_at) / RFU GSTM3 (11746129_a_at) / Fold change /veh GSTM3 (11746129_a_at) / RFU IL23R (11737362_x_at) / Fold change /veh IL23R (11737362_x_at) / RFU TMEM51 (11727254_a_at) / Fold change /veh TMEM51 (11727254_a_at) / RFU PIWIL2 (11732686_x_at) / Fold change /veh PIWIL2 (11732686_x_at) / RFU ORM1 (11744905_x_at) / Fold change /veh ORM1 (11744905_x_at) / RFU CCDC152 (11743942_at) / Fold change /veh CCDC152 (11743942_at) / RFU ECM1 (11717891_a_at) / Fold change /veh ECM1 (11717891_a_at) / RFU IL23R (11748794_a_at) / Fold change /veh IL23R (11748794_a_at) / RFU TNFAIP8L3 (11732012_x_at) / Fold change /veh TNFAIP8L3 (11732012_x_at) / RFU MBOAT4 (11741988_at) / Fold change /veh MBOAT4 (11741988_at) / RFU 11764193_at / Fold change /veh 11764193_at / RFU TMEM53 (11763286_at) / Fold change /veh TMEM53 (11763286_at) / RFU MAGEB2 (11727129_at) / Fold change /veh MAGEB2 (11727129_at) / RFU TMEM200A (11744735_a_at) / Fold change /veh TMEM200A (11744735_a_at) / RFU CCDC152 (11751479_a_at) / Fold change /veh CCDC152 (11751479_a_at) / RFU FAM211A (11726209_a_at) / Fold change /veh FAM211A (11726209_a_at) / RFU RGS16 (11746705_a_at) / Fold change /veh RGS16 (11746705_a_at) / RFU VCAN (11755009_s_at) / Fold change /veh VCAN (11755009_s_at) / RFU RHOB (11743442_s_at) / Fold change /veh RHOB (11743442_s_at) / RFU RGS16 (11720943_a_at) / Fold change /veh RGS16 (11720943_a_at) / RFU RGS16 (11720944_at) / Fold change /veh RGS16 (11720944_at) / RFU, VPS4B / Fold change vs veh, VPS4B / RFU, CREB1 / Fold change vs veh, CREB1 / RFU, DNAJC13 / Fold change vs veh, DNAJC13 / RFU, GNAQ / Fold change vs veh, GNAQ / RFU, CDK5R1 / Fold change vs veh, CDK5R1 / RFU, ZRANB3 / Fold change vs veh, ZRANB3 / RFU, CUL4A / Fold change vs veh, CUL4A / RFU, CCNY / Fold change vs veh, CCNY / RFU, UFL1 / Fold change vs veh, UFL1 / RFU, COG3 / Fold change vs veh, COG3 / RFU, DIAPH2 / Fold change vs veh, DIAPH2 / RFU, SKA2 / Fold change vs veh, SKA2 / RFU, AFF3 / Fold change vs veh, AFF3 / RFU, LMF1 / Fold change vs veh, LMF1 / RFU, IPO11 / Fold change vs veh, IPO11 / RFU, DFFB / Fold change vs veh, DFFB / RFU, FOXP1 / Fold change vs veh, FOXP1 / RFU, CARD8 / Fold change vs veh, CARD8 / RFU, STRN3 / Fold change vs veh, STRN3 / RFU, ADK / Fold change vs veh, ADK / RFU, RASSF2 / Fold change vs veh, RASSF2 / RFU, WIPF1 / Fold change vs veh, WIPF1 / RFU, LARP1B / Fold change vs veh, LARP1B / RFU, RASA1 / Fold change vs veh, RASA1 / RFU, RB1 / Fold change vs veh, RB1 / RFU, PPFIA1 / Fold change vs veh, PPFIA1 / RFU, MAT2A / Fold change vs veh, MAT2A / RFU, CCT5 / Fold change vs veh, CCT5 / RFU, WDR92 / Fold change vs veh, WDR92 / RFU, CUX1 / Fold change vs veh, CUX1 / RFU, TTC7A / Fold change vs veh, TTC7A / RFU, TMEM135 / Fold change vs veh, TMEM135 / RFU, DEPTOR / Fold change vs veh, DEPTOR / RFU, CPM / Fold change vs veh, CPM / RFU, DNAJB6 / Fold change vs veh, DNAJB6 / RFU, CACNA2D3 / Fold change vs veh, CACNA2D3 / RFU, DTX4 / Fold change vs veh, DTX4 / RFU, TFCP2 / Fold change vs veh, TFCP2 / RFU, GMCL1 /// GMCL1P1 / Fold change vs veh, GMCL1 /// GMCL1P1 / RFU, AEBP2 / Fold change vs veh, AEBP2 / RFU, SNHG1 /// SNORD22 /// SNORD25 /// SNORD26 /// SNORD27 /// SNORD28 /// SNORD29 /// SNORD31 / Fold change vs veh, SNHG1 /// SNORD22 /// SNORD25 /// SNORD26 /// SNORD27 /// SNORD28 /// SNORD29 /// SNORD31 / Fold change (Aza/veh), C12orf56 (ProbeSet 11735607_a_at) / Fold change (ACY-1035/veh), C12orf56 (ProbeSet 11735607_a_at) / Fold change (Aza/veh), FGFR1OP (ProbeSet 11751329_s_at) / Fold change (ACY-1035/veh), FGFR1OP (ProbeSet 11751329_s_at) / Fold change (Aza/veh), VPS36 (ProbeSet 11739960_a_at) / Fold change (ACY-1035/veh), VPS36 (ProbeSet 11739960_a_at) / RFU SYPL1 (11715823_x_at) / Fold change /veh SYPL1 (11715823_x_at) / RFU IGFBP7 (11715501_s_at) / Fold change /veh IGFBP7 (11715501_s_at) / RFU REEP3 (11722064_at) / Fold change /veh REEP3 (11722064_at) / RFU IGLL1 (11728026_x_at) / Fold change /veh IGLL1 (11728026_x_at): dose or concentration left out as unconfirmed
Settings: MV-4-11 cells, 48 hours

Nc1ccc(-c2cccs2)cc1NC(=O)c1ccc2c(c1)cc(C1CC1)n2CCN1CCOCC1 [ACY-1035]
RFU MBOAT4 (11741988_at): 8.81 RFU
